Literature values in publication PMC7953028 (Journal of Pesticide Science, 2021).

Assays:
[1] = target: DmMet/DmTai complex (Drosophila melanogaster, UniProt O44118)
DmMet/DmTai complex, sequence (O44118 1-716): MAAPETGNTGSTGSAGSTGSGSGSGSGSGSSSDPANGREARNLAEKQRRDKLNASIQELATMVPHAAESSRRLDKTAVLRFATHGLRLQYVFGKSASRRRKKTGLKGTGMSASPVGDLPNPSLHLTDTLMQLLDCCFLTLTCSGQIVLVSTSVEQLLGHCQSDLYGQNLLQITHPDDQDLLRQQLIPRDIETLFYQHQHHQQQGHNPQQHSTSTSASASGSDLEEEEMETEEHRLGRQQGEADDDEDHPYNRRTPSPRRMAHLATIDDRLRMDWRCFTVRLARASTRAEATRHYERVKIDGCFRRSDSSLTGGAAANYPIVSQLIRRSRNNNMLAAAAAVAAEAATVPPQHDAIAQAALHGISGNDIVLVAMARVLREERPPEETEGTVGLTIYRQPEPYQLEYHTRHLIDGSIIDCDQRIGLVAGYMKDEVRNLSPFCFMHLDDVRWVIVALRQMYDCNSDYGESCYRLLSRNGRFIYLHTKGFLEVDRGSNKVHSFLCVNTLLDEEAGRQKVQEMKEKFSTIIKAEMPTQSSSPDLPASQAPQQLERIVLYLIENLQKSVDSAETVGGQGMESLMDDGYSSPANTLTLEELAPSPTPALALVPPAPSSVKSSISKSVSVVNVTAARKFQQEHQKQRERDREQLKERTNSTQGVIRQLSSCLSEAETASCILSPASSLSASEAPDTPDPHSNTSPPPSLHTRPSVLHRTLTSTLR
DmMet/DmTai complex, sequence (Q9VLD9 1-2026 partner): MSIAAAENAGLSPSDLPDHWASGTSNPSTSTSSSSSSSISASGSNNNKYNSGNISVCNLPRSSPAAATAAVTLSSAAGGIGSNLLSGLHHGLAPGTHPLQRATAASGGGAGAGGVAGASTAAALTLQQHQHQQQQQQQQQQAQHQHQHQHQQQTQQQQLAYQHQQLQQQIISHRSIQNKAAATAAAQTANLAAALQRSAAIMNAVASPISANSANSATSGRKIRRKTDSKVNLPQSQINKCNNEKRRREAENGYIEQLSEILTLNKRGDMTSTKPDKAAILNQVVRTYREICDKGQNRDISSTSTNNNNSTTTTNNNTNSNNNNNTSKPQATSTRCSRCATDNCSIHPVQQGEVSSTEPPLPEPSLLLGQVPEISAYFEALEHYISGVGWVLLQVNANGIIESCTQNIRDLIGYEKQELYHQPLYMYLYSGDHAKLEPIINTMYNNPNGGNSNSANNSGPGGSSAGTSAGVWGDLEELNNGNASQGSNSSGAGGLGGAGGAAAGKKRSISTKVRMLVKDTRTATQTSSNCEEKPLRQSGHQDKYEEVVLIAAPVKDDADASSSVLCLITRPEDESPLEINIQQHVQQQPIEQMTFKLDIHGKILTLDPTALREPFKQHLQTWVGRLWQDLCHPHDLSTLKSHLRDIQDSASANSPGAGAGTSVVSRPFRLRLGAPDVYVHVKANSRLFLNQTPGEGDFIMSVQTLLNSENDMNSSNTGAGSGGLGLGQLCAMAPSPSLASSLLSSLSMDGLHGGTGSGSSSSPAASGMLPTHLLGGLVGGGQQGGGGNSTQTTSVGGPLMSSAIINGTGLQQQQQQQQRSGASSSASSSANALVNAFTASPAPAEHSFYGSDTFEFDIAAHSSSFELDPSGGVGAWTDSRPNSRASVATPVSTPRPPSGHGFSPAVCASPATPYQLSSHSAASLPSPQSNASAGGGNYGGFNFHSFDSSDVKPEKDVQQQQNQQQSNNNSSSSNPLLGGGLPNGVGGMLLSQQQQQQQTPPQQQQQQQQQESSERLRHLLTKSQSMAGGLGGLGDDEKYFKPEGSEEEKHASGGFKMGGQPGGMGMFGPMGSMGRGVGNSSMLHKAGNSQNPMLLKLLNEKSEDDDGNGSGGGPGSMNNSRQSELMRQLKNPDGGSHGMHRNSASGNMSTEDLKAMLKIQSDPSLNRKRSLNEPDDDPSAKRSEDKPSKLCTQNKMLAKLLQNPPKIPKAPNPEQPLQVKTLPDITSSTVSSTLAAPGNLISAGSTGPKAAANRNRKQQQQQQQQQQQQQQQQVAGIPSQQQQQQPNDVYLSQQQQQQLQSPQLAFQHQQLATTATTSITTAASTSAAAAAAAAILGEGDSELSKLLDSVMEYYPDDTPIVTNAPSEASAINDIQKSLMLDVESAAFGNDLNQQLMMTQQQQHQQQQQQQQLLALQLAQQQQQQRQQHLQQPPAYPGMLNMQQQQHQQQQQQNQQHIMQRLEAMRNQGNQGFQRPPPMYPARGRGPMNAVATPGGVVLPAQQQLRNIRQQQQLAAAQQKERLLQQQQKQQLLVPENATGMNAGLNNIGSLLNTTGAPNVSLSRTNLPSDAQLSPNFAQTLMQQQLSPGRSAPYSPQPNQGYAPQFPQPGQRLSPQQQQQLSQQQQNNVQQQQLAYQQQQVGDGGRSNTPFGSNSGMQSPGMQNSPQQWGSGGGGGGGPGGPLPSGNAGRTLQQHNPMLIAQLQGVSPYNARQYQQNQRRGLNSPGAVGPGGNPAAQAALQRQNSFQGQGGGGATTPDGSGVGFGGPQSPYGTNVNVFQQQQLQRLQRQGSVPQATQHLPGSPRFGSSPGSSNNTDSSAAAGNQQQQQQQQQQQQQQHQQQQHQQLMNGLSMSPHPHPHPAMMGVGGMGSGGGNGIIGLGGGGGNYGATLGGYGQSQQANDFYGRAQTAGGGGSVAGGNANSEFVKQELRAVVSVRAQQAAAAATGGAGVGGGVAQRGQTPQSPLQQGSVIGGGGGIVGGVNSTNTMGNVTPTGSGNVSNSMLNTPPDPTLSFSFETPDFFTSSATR

Row | Structure (SMILES) | log P | activity in reporter system relative to natural JHs [1]
1 | COC(C)(C)CCC[C@H](C)C/C=C/C(C)=C/C(=O)OC(C)C (racemic) [methoprene] | 5.00 | –
2 | c1ccc(Oc2ccc(OCCOc3nccs3)cc2)cc1 [Compound 1, 2-[2-(4-phenoxyphenoxy)ethoxy]thiazole] | – | outperformed natural JHs
3 | C(#Cc1ccccn1)COc1ccc(Oc2ccccc2)cc1 [Compound 2, 2-[3-(4-phenoxyphenoxy)-1-propyn-1-yl)pyridine] | – | outperformed natural JHs
